Assay results published in patent publication US5612314A, “Nitrosylated neuropeptides” (Brigham & Women's Hospital, priority 1995, dated 1997).
Read-outs that look alike come from different tables or passages of the source.

Legend:
guinea-pig trachea [1] = settings: for IC50: read-out: IC50 of relaxation of tracheal rings, precontracted with 10 μM methacholine, FIG. 4; for time for relaxation to reach a plateau: 100 nM; for effect of pretreatment with 100 nM propanol on the induced relaxation: cumulative additions, dose range 10-320 nM
Method: (§3) Male Hartley guinea pigs (300-400 g) were anesthetized by use of intraperitoneal injection of pentobarbital sodium (40 mg/kg) to achieve a deep plane of anesthesia. The tracheas were dissected out, transferred to cold Krebs' solution. Tracheas were then dissected free from surrounding fat and connective tissue and cut transversely between the segments of cartilage, so as to give tracheal rings about 2 mm thick. The rings were suspended between stainless-steel hooks in the 20 ml organ baths containing the above-mentioned Krebs' solution at 37° C. The hooks were connected to the FT03C transducers. Rings were equilibrated at a basal tension of 1 g as described above and then primed twice with methacholine (100 nM). The rings were rinsed throughout after each priming exposure. Tracheal rings were not used if they could not sustain at least 1 g tension when exposed to 100 nM methacholine. The surface of organ baths was treated with 1N HCl to minimize contamination and allowed to dry in room air before Krebs' solution were added. For relaxation studies, methacholine (100 nM) was used to contract the tracheal rings and results are expressed in percentage of relaxation of methacholine-induced tone.

[2] = dog, in vivo
Method: (§1) Male mongrel dogs (20-30 kg) were used as the animal model. Under pentobarbital anesthesia (30 mg/kg) and mechanical respiration, a 20 gauge anglocatheter was placed into the carotid artery for measurement of systemic blood pressure. A ventral incision was made in the penis and the corpora cavernosa were exposed.
(§2) A 19 gauge minicatheter was inserted deep into the cavernosal tissue, on each corpus, for pressure measurement and delivery of either VIP, VIP-Gly-Cys-NO, VIP-Gly-Cys-NH2 or papaverine. […] Drugs were delivered intracavernosally in solution, 0.5 ml volume, at variable syringe concentrations, starting at 10^-7 M and progressively increasing the dose up to, in some instances, 10^-4 M. In most experiments, at the end, papaverine 80 mM was administered intracavernosally in order to compare this response to those elicited by VIP or its analogs. At all times systemic blood pressure was monitored, for comparison with intracavernosal pressure.

[3] = system: rat gastric fundus strips; assay: Contraction of rat gastric fundus strips; type: cell-based; settings: for relative potency of inhibition of contraction amplitude: 5HT (10 μM) present, FIG. 8
Method: Male and female Sprague-Dawley rats weighing 200-300 g were anesthetized with 40 mg/kg sodium pentobarbital given intraperitoneally. After deep anesthesia was obtained, exsanguination was accomplished by severing both the jugular vein and common carotid artery. The abdomen was opened at the midline and the stomach was removed, and transferred to the ice cold oxygenated Krebs' solution at pH 7.4. The stomach was dissected out and the pink pyloric end cut away from the grey fundal end. The fundal end was split open so as to form a sheet, the contents were washed away. Longitudinal muscle strips (3×20 mm) of the gastric fundus were prepared as described by Vane (Vane, Br. J. Pharmac. Chemother., 12:344, 1957). The strips were mounted under a 1-g resting tension between two parallel platinum electrodes placed inside the organ baths containing 20-ml of the gassed Krebs' solution. The Krebs' solution also contained atropine (1 μM) and guanethidine (4 μM) to block cholinergic and adrenergic involvement in response to field stimulation of intramural nerves and 5-hydroxytryptamine (5-HT, 5-10 μM) to raise the tone of the smooth muscle. In some experiments, indomethacin (10 μM) was present in Krebs' to avoid the influence of endogenous prostaglandins. Tissues were allowed to equilibrate for 1 h with changes of Krebs' solution every 10 minutes.
After the equilibration period, relaxations of smooth muscle were elicited by VIP, VIPGC, VIPGC-NO, isoproterenol and GSNO. In some experiments, the strips were incubated for 10 minutes with N^G -monomethyl L-arginine (L-NMMA).

[4] = system: cGMP and cAMP content of rabbit aortic rings; assay: Cyclic GMP and cyclic AMP content of rabbit aortic rings (enzyme-immunoassay); type: cell-based; settings: 1 μM, FIG. 9; for cGMP content of aortic rings: at maximum relaxation
Method: (§4) Frozen tissues were homogenized in ice-cold 6% trichloroacetic acid to give approximately a 10% (w/v) homogenate. The homogenates were centrifuged at 2,000 g for 15 minutes at 4° C. The supernatant fractions were decanted off the pellets and washed four times with 5 volumes of water-saturated ethyl ether, and the aqueous extracts remaining were saved for assay for cyclic GMP and AMP using enzyme-immunoassay kits (Amersham Life Science Inc., Arlington Heights, IL).

rabbit aortic rings = assay: Relaxation of precontracted rabbit aortic rings (isometric tension); type: cell-based; settings: for relaxation of aortic rings, cumulative additions: intact rings precontracted with phenylephrine (100 μM), 10 nM to 1 μM, FIG. 2
Method: Briefly, male New Zealand rabbits weighing 1.5 to 2.0 Kg were anesthetized by an intravenous injection of sodium pentobarbital (40 mg/kg) into a marginal ear vein. The descending thoracic aorta was quickly removed and placed in ice-cold Krebs' solution containing the following composition (mM): NaCl, 118; KCl, 4.8; MgSO4, 1.2; CaCl2, 2.5; KH2 PO4, 1.2; NaHCO3, 25; glucose, 11; Na2 EDTA, 0.03. The thoracic aorta was first trimmed free of most adipose and connective tissue. It was then cut into transverse rings by placing it at a right angle across five parallel razor blades mounted at 2.5 mm intervals in a plastic holder and then rolling a large polypropylene pipette tip over it (simultaneously producing four rings of equal size). The aortic rings and other tissues (see the following) used in this study, were mounted on pairs of L-shaped hooks and suspended in Krebs' solution (gassed with 95% 02 /5% CO2, 37° C.) in 20 ml organ chambers unless stated otherwise.
Results are expressed in percentage of relaxation of phenylephrine-induced tone.

rabbit sphincter of Oddi = assay: Contractility of isolated rabbit sphincter of Oddi; type: cell-based; settings: for effect on ACh-induced contractions: ACh-pretreated (10 μM), cumulative addition, peptides 1 nM-1 μM, GSNO 0.1-100 μM; for inhibition at 100 µM: Oryctolagus cuniculus
From the text: The preparation of rabbit sphincters of Oddi (SO) was similar to that described previously (Slivka et al. 1994) with minor modifications. Briefly, the rabbit abdomen was opened at the midline. The gall bladder, bile duct, gastric antrum and contiguous duodenum were isolated, removed en bloc, and transferred to ice cold Krebs' solution at pH 7.4. The duodenum was opened along the antimesenteric border as was the adjacent pylorus and gastric antrum. From the luminal surface, the ampulla of Vater was identified and the SO isolated on ice under an illuminated magnifier by sharp dissection.
The SO were mounted on pairs of the hooks and suspended in organ chambers containing the Krebs' solution at 37° C. Resting tension was adjusted to 1 g, and circular contractions were monitored by the FT03C force transducer and recorded on the model 7 Grass polygraphs. SO were allowed to equilibrate as described above. […] Some experiments were performed by using ACh to intensify SO contractility, and then the effects of VIP, VIPGC-NO, VIPGC and GSNO on SO contractility were tested. After each experimental observation was complete, the SO were washed at least three times with fresh Krebs' solution.

guinea-pig trachea [5] = assay: tissue or blood; settings: Cavia porcellus, read-out: IC50 of relaxation of tracheal rings
Method: as §3

[6] = system: cGMP and cAMP content of guinea pig tracheal rings; assay: Cyclic GMP and cyclic AMP content of guinea pig tracheal rings (enzyme-immunoassay); type: cell-based; settings: 100 nM, n=4, FIG. 10; for cGMP content of tracheal rings: at plateau of relaxation
Method: as §4

corpora cavernosa = assay: Erectile response (intracavernosal pressure) in vivo in the anesthetized dog
Method: as §1, §2

CC[C@H](C)[C@H](NC(=O)[C@H](CO)NC(=O)[C@H](CC(N)=O)NC(=O)[C@H](CC(C)C)NC(=O)[C@H](Cc1ccc(O)cc1)NC(=O)[C@H](CCCCN)NC(=O)[C@H](CCCCN)NC(=O)[C@@H](NC(=O)[C@H](C)NC(=O)[C@H](CCSC)NC(=O)[C@H](CCC(N)=O)NC(=O)[C@H](CCCCN)NC(=O)[C@H](CCCNC(=N)N)NC(=O)[C@H](CC(C)C)NC(=O)[C@H](CCCNC(=N)N)NC(=O)[C@@H](NC(=O)[C@H](Cc1ccc(O)cc1)NC(=O)[C@H](CC(N)=O)NC(=O)[C@H](CC(=O)O)NC(=O)[C@@H](NC(=O)[C@H](Cc1ccccc1)NC(=O)[C@@H](NC(=O)[C@H](C)NC(=O)[C@H](CC(=O)O)NC(=O)[C@H](CO)NC(=O)[C@@H](N)Cc1c[nH]cn1)C(C)C)[C@@H](C)O)[C@@H](C)O)C(C)C)C(=O)N[C@@H](CC(C)C)C(=O)N[C@@H](CC(N)=O)C(=O)NCC(=O)N[C@@H](CS)C(N)=O [VIPGC, VIP-Gly-Cys-NH2]
IC50 (guinea-pig trachea [1]): 59 ± 9 nM
diastolic blood pressure (DBP) [2]: 120 mm Hg

CC[C@H](C)[C@H](NC(=O)[C@H](CO)NC(=O)[C@H](CC(N)=O)NC(=O)[C@H](CC(C)C)NC(=O)[C@H](Cc1ccc(O)cc1)NC(=O)[C@H](CCCCN)NC(=O)[C@H](CCCCN)NC(=O)[C@@H](NC(=O)[C@H](C)NC(=O)[C@H](CCSC)NC(=O)[C@H](CCC(N)=O)NC(=O)[C@H](CCCCN)NC(=O)[C@H](CCCNC(=N)N)NC(=O)[C@H](CC(C)C)NC(=O)[C@H](CCCNC(=N)N)NC(=O)[C@@H](NC(=O)[C@H](Cc1ccc(O)cc1)NC(=O)[C@H](CC(N)=O)NC(=O)[C@H](CC(=O)O)NC(=O)[C@@H](NC(=O)[C@H](Cc1ccccc1)NC(=O)[C@@H](NC(=O)[C@H](C)NC(=O)[C@H](CC(=O)O)NC(=O)[C@H](CO)NC(=O)[C@@H](N)Cc1c[nH]cn1)C(C)C)[C@@H](C)O)[C@@H](C)O)C(C)C)C(=O)N[C@@H](CC(C)C)C(=O)N[C@@H](CC(N)=O)C(=O)NCC(=O)N[C@@H](CSN=O)C(N)=O [VIPGC-NO, VIP-Gly-Cys-NO]
IC50 (guinea-pig trachea [1]): 32 ± 6 nM
diastolic blood pressure (DBP) [2]: 120 mm Hg

N[C@@H](CCC(=O)N[C@@H](CSN=O)C(=O)NCC(=O)O)C(=O)O [GSNO, S-nitrosoglutathione]
relative potency of inhibition of contraction amplitude [3]: two least potent inhibitors
cGMP content of aortic rings [4]: significant increase in cGMP concentration
cAMP content of aortic rings [4]: no significant increase in cAMP content
relaxation of aortic rings, cumulative additions (rabbit aortic rings): also observed in the rings exposed to GSNO
effect on ACh-induced contractions (rabbit sphincter of Oddi): gradually attenuated
inhibition at 100 µM (rabbit sphincter of Oddi; ACh 10 μM, read-out: inhibition of ACh-enhanced phasic contractions): 89 ± 5%
inhibition at 100 µM (rabbit sphincter of Oddi; read-out: inhibition of basic contractility of sphincter of Oddi): 91 ± 9%

NCCc1c[nH]c2ccc(O)cc12 [5HT, 5-hydroxytryptamine]
effect on contractions of the strips ([3]; 10 μM): significant increase in contractions

CC(=O)OCC[N+](C)(C)C [ACh, acetylcholine]
acceleration in phasic contractions (rabbit sphincter of Oddi; 10 μM, n=12): 69±15%
elevations in tonic pressure (rabbit sphincter of Oddi; 10 μM, n=12): 73±12%

CC(C)NCC(O)c1ccc(O)c(O)c1 (stereo not shown) [isoproterenol]
relative potency of inhibition of contraction amplitude [3]: two least potent inhibitors
time for relaxation to reach a plateau (guinea-pig trachea [1]): about 5 minutes
effect of pretreatment with 100 nM propanol on the induced relaxation (guinea-pig trachea [1]): blocked
IC50 (guinea-pig trachea [5]): 47 ± 3 nM
cGMP content of tracheal rings [6]: no appreciable changes in the cGMP content
cAMP content of tracheal rings [6]: significant increase in the cAMP level

CC[C@H](C)[C@H](NC(=O)[C@H](CO)NC(=O)[C@H](CC(N)=O)NC(=O)[C@H](CC(C)C)NC(=O)[C@H](Cc1ccc(O)cc1)NC(=O)[C@H](CCCCN)NC(=O)[C@H](CCCCN)NC(=O)[C@@H](NC(=O)[C@H](C)NC(=O)[C@H](CCSC)NC(=O)[C@H](CCC(N)=O)NC(=O)[C@H](CCCCN)NC(=O)[C@H](CCCNC(=N)N)NC(=O)[C@H](CC(C)C)NC(=O)[C@H](CCCNC(=N)N)NC(=O)[C@@H](NC(=O)[C@H](Cc1ccc(O)cc1)NC(=O)[C@H](CC(N)=O)NC(=O)[C@H](CC(=O)O)NC(=O)[C@@H](NC(=O)[C@H](Cc1ccccc1)NC(=O)[C@@H](NC(=O)[C@H](C)NC(=O)[C@H](CC(=O)O)NC(=O)[C@H](CO)NC(=O)[C@@H](N)Cc1c[nH]cn1)C(C)C)[C@@H](C)O)[C@@H](C)O)C(C)C)C(=O)N[C@@H](CC(C)C)C(=O)N[C@@H](CC(N)=O)C(N)=O [VIP, vasoactive intestinal peptide]
erectile response (corpora cavernosa; 10^-5 M, FIG. 16): partial and short erectile response
erectile response (corpora cavernosa; intracavernosal 10^-5 M, FIG. 13): capable of inducing sustained penile erection
time for relaxation to reach a plateau (guinea-pig trachea [1]): about 20 minutes
effect of pretreatment with 100 nM propanol on the induced relaxation (guinea-pig trachea [1]): did not antagonize
cGMP content of aortic rings [4]: less than that of VIPGC-NO or GSNO
cAMP content of aortic rings [4]: no significant increase in cAMP content
relaxation of aortic rings, cumulative additions (rabbit aortic rings): certain degree of relaxation only at 1 μM
relaxation of phenylephrine-precontracted aortic rings (rabbit aortic rings; single doses (1 μM), FIG. 3): 19±4%
persistence of effect (rabbit sphincter of Oddi): at least 90 minutes
time to observed effect after addition to organ chambers (rabbit sphincter of Oddi): ≤ 2 min
inhibition of contraction frequency (rabbit sphincter of Oddi; 1 μM): 94±16%
inhibition of ACh-enhanced phasic contractions (rabbit sphincter of Oddi; 1 μM, ACh 10 μM): 93±7%
effect on ACh-induced contractions (rabbit sphincter of Oddi): gradually attenuated
inhibition of basic contraction frequency and amplitude (rabbit sphincter of Oddi; cumulative addition 1 nM-1 μM, FIG. 5, 6): inhibited both basic contraction frequency and amplitude dose-dependently
irregular and incomplete contractions noted during incubation (rabbit sphincter of Oddi; single dose 0.1 μM, 30 minutes, n=5, FIG. 7): 40±11
cGMP content of tracheal rings [6]: significant increase in the content of cGMP
cAMP content of tracheal rings [6]: no concomitant increases in the cAMP level
